Laboratory results from patent publication US9918480B2, “Compositions and methods to selectively control invasive species” (STEPHEN F. AUSTIN STATE UNIVERSITY, priority 2013, dated 2018).
Like-named read-outs stand apart in the source and are kept apart here.

What was measured:
[1] = system: giant salvinia (Salvinia molesta); assay: Spray of salviniside II and other isolates/fractions on giant salvinia plants; assay type: in vivo; parameters: key to activity class against giant salvinia: inactive: not able to inhibit the growth of giant salvinia at all; active: able to fully inhibit the growth of giant salvinia at high concentrations; very active: able to fully inhibit the growth of giant salvinia at low concentrations
Protocol: The combined fractions were loaded on a pre-equilibrated open ODS column (60×600 mm). The ODS column was eluted successively with 30%, 55%, 75% and 100% MeOH to yield four fractions F1, F2, F3, and F4, respectively. […] NMR experiments were performed on a JEOL ECS-400 and a Bruker Avance 700 NMR instrument. NMR data were reported as δ (ppm) values and referenced to the solvent used. HRESIMS were acquired on an electrospray instrument (MDS Sciex Pulsar Qstar, Ontario, Canada). Octadecyl-functionalized silica gel, silica gel, Sephadex LH-20, and TLC plates were purchased from Aldrich Chemical Co. HPLC analysis was performed on a Hewlett Packard Series 1100 with a HP 1100 diode array detector using a Hypersil ODS column (150×4.6 mm, 5 μM, Supelco; flow rate, 1 mL/min; MeOH/H2O (v/v) linear gradient, 2:98-98:2 in 35 min). Preparative HPLC was performed with an Acuflow Series III pump connected with an Acutect 500 UV/VIS detector using an Econosil ODS column (250×22 mm, 10 μM, All tech). The total 27 healthy and untreated living plants of giant salvinia (in secondary growth stage, approximately 10 g in fresh weight each) were cultured and tested in plastic containers (14×15 cm, 0.68 L) in the NCPC Lab at RT. The […] treatments were as follows. Controls: 9 plants with three in each container (3 replications) were cultured with 150 mL of tap water; 0.01% salviniside II treatment: 9 plants with three in each container (3 replications) were sprayed with 150 mL 0.01% of salviniside II dissolved in tap water; and 0.1% salviniside II treatment: 9 plants with three in each container (3 replications) were sprayed with 150 mL 0.1% of salviniside II dissolved in tap water. […] By the end of two weeks, new growth biomass of plants in each treatment was measured. The biomass of new growth was a primary factor to measure the inhibition of each treatment on the target plant.

[2] = system: L. leucocephala; settings: 100 mg/L; cited from earlier work
[3] = system: red imported fire ant (Solenopsis invicta Buren) workers; assay: Contact toxicity assay, topical spray on fire ant workers, 7 h; assay type: in vivo; settings: PROBIT
Protocol: (§1) Preparation of the fire ant extracts: (1) Acetone extract: 97 g (in fresh weight) of the red imported fire ant workers were extracted two times with acetone at RT (each 250 mL, 24 h). […] (2) Ethanol extract: 110 g (in fresh weight) of the whole worker bodies of the red imported fire ant (Solenopsis invicta Buren) (family Furmicidae) were extracted two times with 95% EtOH at RT (each 250 mL, 24 h). […] Both extracts were dissolved in water and then prepared as experimental solutions at the concentration of 0.1%, 1%, 5%, and 10%, respectively. […] The mixture was put under ultrasound for 30 min extraction. The fire ants were then removed and the extract was dried with anhydrous magnesium sulfate. 500 μL of the extract was transferred to NMR tube for detection. ^1H-NMR experiments were performed on a JEOL ECS 400 spectrometer, with spectroscopic data referenced to the solvent used. […] The ants in each beaker were topically sprayed with a total 1 mL of 0.1%, 1%, 5%, or 10% solutions of either acetone or ethanol extract, respectively. The control group was sprayed with 1 mL pure water. The beakers in all treatments were covered by cloth to prevent the escape of the fire ants. The surviving number of the fire ants in each treatment was counted by 1 h interval for 7 h. […] The ants in each beaker were topically sprayed with a total 1 mL of 0.1%, 1%, or 5% solutions of either formic or acetic acids, respectively. The control group was sprayed with 1 mL pure water. The beakers in all treatments were covered by cloth to prevent the escape of fire ants. The surviving number of the fire ants in each treatment was counted by 1 h interval for 7 h. […] The surviving number of the fire ants in each treatment was counted by 15 min interval for 90 min. […] The surviving number of the fire ants in each treatment was counted by 15 min interval for 90 min. […] The surviving number of the fire ants in each treatment was counted by 1 h interval for 7 h. […] The surviving number of the fire ants in each treatment was counted by 1 h interval for 2 h. […]

[4] = system: red imported fire ant (Solenopsis invicta Buren) workers; settings: for average mortality: 90 min
Protocol: as §1

[5] = system: subterranean termite (Reticulitermes flavipes (Kollar)); settings: for termite kill: during the first hour
Protocol: The mixture was put under ultrasound for 30 min extraction. The termites were then removed and the extract was dried with anhydrous magnesium sulfate. 500 μL of the extract was transferred to NMR tube for detection. ^1H-NMR experiments were performed on a JEOL ECS 400 spectrometer, with spectroscopic data referenced to the solvent used. […] The control group was sprayed with 1 mL pure water. The beakers in all treatments were covered by cloth to prevent the escape of termites. The surviving number of the termites in each treatment was counted by 1 h interval for 7 h.

[6] = system: giant salvinia (Salvinia molesta)
Protocol: Plant growth and survival status were documented and photographed hourly for the first 5 h and then daily for seven days after the treatment.

[7] = system: seedlings of rice cultivars; settings: vs four species of Brassicaceae, Asteraceae, Fabaceae and five weed grass species of Poaceae; cited from earlier work

4″,6″-O-[3,5-dicarbonyl-8-hydroxy-2-(4′,5′-dihydroxy-phenyl)-1-benzofuran-2-yl]-D-glucopyranose [salviniside II]
new growth thereafter ([1]; 0.1%, eight months of observation): no new growth
growth of giant salvinia ([1]; 0.1%, within two weeks, lab at RT): totally inhibited
activity class against giant salvinia ([1]; isolates and subfractions of F3): active

NC(Cn1ccc(=O)c(O)c1)C(=O)O (stereo not shown) [Minosine]
inhibition on the producing plants [2]: did not show any inhibition

CC(=O)O [acetic acid]
7 h LD50 [3]: 6.42%
7 h LD90 [3]: 9.96%

O=CO [formic acid]
average mortality ([4]; 2.5%): more than 70%
average mortality ([4]; 5%): 100%
2 h LD90 ([4]; fumigation, PROBIT): 0.9%
7 h LD90 [3]: 5.09%
impact on the termites ([5]; 0.1%): no impact
termites killed ([5]; 1%, 7 h): more than 40%
termite kill ([5]; 5%): killed all termites
termite kill ([5]; 10%): killed all termites
7 h LD90 ([5]; contact toxicity): 9.08%
growth inhibition ([6]; 0.01% concentration): still effectively inhibited the growth of giant salvinia
plants killed ([6]; 0.05% concentration, within 24 h): approximately 50%

C=C[C@]1(C)CC[C@@H]2C(=C[C@H]3OC(=O)[C@@]4(C)C(=O)CC[C@@]2(C)[C@@H]34)C1 [momilactone A]
effective concentration to inhibit rice seedlings relative to that for other species [7]: 100 times

C=C[C@]1(C)CC[C@@H]2C(=C[C@H]3OC(=O)[C@]4(C)[C@H]3[C@]23CC[C@@]4(O)OC3)C1 [momilactone B]
effective concentration to inhibit rice seedlings relative to that for other species [7]: 333 times
